The text below walks through data of US9556217B2, “Amphiphilic compounds” (WISCONSIN ALUMNI RESEARCH FOUNDATION, priority 2012, dated 2017).

Structures are written as SMILES.

Assay [1] addresses T1, cytidine-5′-monophosphate-sialic acid transporter (CMP-Sia) (Mus musculus, UniProt Q61420).
T1 construct: GFP-His (C, cleaved yes); made in house; host or cells: Saccharomyces cerevisiae
T1 sequence (Q61420 1-336): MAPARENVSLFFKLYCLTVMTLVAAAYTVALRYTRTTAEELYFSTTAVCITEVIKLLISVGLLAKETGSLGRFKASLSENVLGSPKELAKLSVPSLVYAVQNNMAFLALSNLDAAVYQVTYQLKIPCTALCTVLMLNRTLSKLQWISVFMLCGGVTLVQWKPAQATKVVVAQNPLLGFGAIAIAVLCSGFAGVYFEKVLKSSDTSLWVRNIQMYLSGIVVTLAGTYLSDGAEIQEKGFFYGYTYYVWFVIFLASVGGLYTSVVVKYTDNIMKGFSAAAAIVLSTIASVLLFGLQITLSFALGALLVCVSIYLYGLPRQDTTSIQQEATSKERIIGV
The assay can be described thus: CMP-Sia gel filtration integrity. To be noted: detergent at 0.042 wt %; 2 hours at 30° C. The arrangement: species or system murine. The procedure:
The promising behavior manifested by GDN in terms of the stability of bR and the R. capsulatus superassembly prompted the examining this amphiphile with another membrane protein, the murine cytidine-5′-monophosphate-sialic acid transporter (CMP-Sia) (Newstead et al., Proc. Natl. Acad. Sci. USA 2007, 104, 13936-13941). The protein was initially extracted from S. cereviseae membranes with 1% DDM and isolated in buffer containing 0.03% DDM. The final purified protein (6 mg/mL) was diluted 1:100 into solutions containing DDM or GDN at 0.042 wt % (which corresponds to CMC+0.033 wt % for DDM and CMC+0.04 wt % for GDN). The DDM- and GDN-solubilized CMP-Sia were analyzed by gel filtration before and after incubation for 2 hours at 30° C. (FIG. 5a, b).
Protein integrity was assessed using the procedure reported by Chae and coworkers (Nat. Methods 2010, 7, 1003-1008) using CMP-Sia instead of SQR.
CMP-Sia and GlpG were expressed as fusion proteins with a C-terminal GFP-His tag in Saccharomyces cerevisiae and Escherichia coli respectively. All steps were carried out at 4° C. Membranes containing CMP-Sia and GlpG were resuspended in PBS, 10 mM imidazole pH 8.0, 150 mM NaCl, 10% glycerol and solubilized in 1% DDM for 1 hour with mild agitation. Supernatant containing DDM-solubilized protein was harvested after ultracentrifugation at 100,000 g for 45 min. […]

In another assay the test system is LHI-RC superassembly. In words: Extraction of LHI-RC superassembly from membranes. To be noted: 2 wt % GDN. Set-up: species or system R. capsulatus. The procedure:
The favorable MelB extraction performance of GDN led to the examination of this amphiphile for extraction of other IMPs. […] DDM and GDN were used to extract a CMP-Sia fusion protein bearing green fluorescent protein (GFP) at the C-terminus, after expression in Saccharomyces cerevisiae; the amount of solubilized protein was estimated by total fluorescence. GDN (2 wt %), DDM (1 wt %) and OG (1 wt %) gave ˜70%, ˜80% and ˜50% extraction yields, respectively.
The procedure was performed according to the protocol reported by Chae and coworkers (Nat. Methods 2010, 7, 1003-1008).
The solubilization and stability of the R. capsulatus superassembly were assessed according to the published protocol (Chae et al., J. Am. Chem. Soc. 2010, 132, 16750-16752). Briefly, specialized photosynthetic membranes obtained from an engineered strain of Rhodobacter (R.) capsulatus, U43[pUHTM86Bgl], lacking the LHII light-harvesting complex, were used. Solubilization of the LHI-RC superassembly began by thawing, homogenizing, and incubating frozen aliquots of R. capsulatus membranes at 32° C. for 30 min. Subsequent 30-min incubation was performed after adding DDM or LDAO at 1.0 wt % or GDN at 2.0 wt % in the solid form. […] To assess solubilization efficiency, UV-Vis spectra of the solubilized protein solutions were measured in a range of 650˜950 nm.

With `CCCCCCCCCCCCO[C@@H]1O[C@H](CO)[C@@H](O[C@H]2O[C@H](CO)[C@@H](O)[C@H](O)[C@H]2O)[C@H](O)[C@H]1O` [DDM, dodecyl-β-D-maltoside, reference compound], in assay [1], the “CMP-Sia integrity after incubation (gel filtration)” value is listed as around 50%.

Consider `C[C@@H]1CC[C@@]2(OC1)O[C@H]1C[C@H]3[C@@H]4CC=C5C[C@@H](OCCC(CO[C@@H]6OC(CO)[C@@H](O[C@H]7OC(CO)[C@@H](O)C(O)C7O)C(O)C6O)CO[C@@H]6OC(CO)[C@@H](O[C@H]7OC(CO)[C@@H](O)C(O)C7O)C(O)C6O)CC[C@]5(C)[C@H]4CC[C@]3(C)[C@@H]1[C@@H]2C` (stereo partly drawn) [GDN, glyco-diosgenin], for which the “LHI-RC superassembly extraction compared with 1 wt % DDM” value in the assay with LHI-RC superassembly is “Comparable results”. In assay [1], the “CMP-Sia integrity after incubation (gel filtration)” value is listed as above 90%.
